Laboratory results from paper PMC4594923, “Food Polyphenols Fail to Cause a Biologically Relevant Reduction of COX-2 Activity” (PLoS ONE, 2015).
Marks after values point to notes of the source that are not given here.

What was measured:
[1] = test system: arachidonic acid (AA) cascade; assay: liver tissue oxylipin/PG levels in LPS induced sepsis in mice; assay type: in vivo, C57BL/6N mice; conditions: liver tissue 24 h after LPS treatment;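 note: male C57BL/6N mice pretreated i.p. with polyphenols at 100 mg/kg bw or vehicle before LPS, liver oxylipins measured by LC-MS after solid-phase extraction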
Source text: (§1) Twelve week old male C57BL/6N mice (Charles River, Sulzfeld, Germany) were used for all experiments. C57BL/6 male mice (H2^b, 11–13 weeks of age) were obtained from Charles River (Sulzfeld, Germany). Animals were cared for in accordance with the institution’s guidelines for experimental animals and with the guidelines of the American Physiological Society. […] Mice were monitored closely and if they appeared compromised (i.e. inactivity, no intake of food or water) after compound or LPS injection the experiment was terminated.
(§2) Oxylipin levels were analyzed in plasma and tissues by LC-MS following SPE extraction of 200 μl plasma or tissue homogenate (50 mg) on Chromabond C18 ec cartridges (Machery-Nagel, Düren, Germany) [19].
(§3) GraphPad Prism 5.0 (GraphPad Software, San Diego, USA) was used for data analysis, the fitting of dose response curves and calculation of the IC50 values. Statistical differences were determined by Dunnetts test (LPS vs. other groups).

[2] = test system: arachidonic acid (AA) cascade; assay: kidney tissue oxylipin/PG levels in LPS induced sepsis in mice;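 note: male C57BL/6N mice challenged with LPS, kidney taken 24 h later, oxylipins quantified by LC-MS after solid-phase extraction of tissue homogenate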
Source text: as §1, §2, §3

[3] = kidney tissue 24 h after LPS treatment, LPS +, mean
[4] = kidney tissue 24 h after LPS treatment, LPS +, mean, < = below LOQ
[5] = mice, compound i. p. 100 mg/kg bw 2 h before LPS, 24 h after LPS, vs. LPS group

Oc1ccc(/C=C/c2cc(O)cc3c2[C@@H](c2cc(O)cc(O)c2)[C@H](c2ccc(O)cc2)O3)cc1 [ε-Viniferin, ε-viniferin]
4,5-DiHDPE concentration ([1]; mean): 20 nM | 4-HDHA concentration ([1]; mean): 6.8 nM | 5(6)-EpETrE concentration ([1]; mean): 45 nM | 5,6-DiHETE concentration ([1]; mean): < 0.30 nM | 5,6-DiHETrE concentration ([1]; mean): 1.9 nM | 5-HEPE concentration ([1]; mean): 1.2 nM | 5-HETE concentration ([1]; mean): 1.2 nM | 5-iPF2α concentration ([1]; mean): 2.3^‡ nM | 5-oxo-ETE concentration ([1]; mean): 14 nM | 6-keto-PGF1α concentration ([1]; mean): 29 nM | 7,8-DiHDPE concentration ([1]; mean): 1.9 nM | 7-HDHA concentration ([1]; mean): 1.7 nM | 8(9)-EpETE concentration ([1]; mean): 1.5 nM | 8(9)-EpETrE concentration ([1]; mean): 9.8 nM | 8,9-DiHETE concentration ([1]; mean): 1.2 nM | 8,9-DiHETrE concentration ([1]; mean): 4.4 nM | 8,15-DiHETE concentration ([1]; mean): < 0.80 nM | 8-HDHA concentration ([1]; mean): 9.0 nM | 8-HEPE concentration ([1]; mean): < 0.60 nM | 8-HETE concentration ([1]; mean): 4.2 nM | 8-iPF2α concentration ([1]; mean): < 0.10 nM | 9(10)-EpODE concentration ([1]; mean): 9.2 nM | 9(10)-EpOME concentration ([1]; mean): 84 nM | 9(10)-Epoxystearic acid concentration ([1]; mean): 66 nM | 9,10,13-TriHOME concentration ([1]; mean): 16 nM | 9,10-DiHODE concentration ([1]; mean): 3.9 nM | 9,10-DiHOME concentration ([1]; mean): 43^* nM | 9,10-Dihydroxystearic acid concentration ([1]; mean): 170 nM | 9,12,13-TriHOME concentration ([1]; mean): 110 nM | 9-HETE concentration ([1]; mean): 2.9 nM | 9-HODE concentration ([1]; mean): 250 nM | 9-HOTrE concentration ([1]; mean): 5.0 nM | 9-oxo-ODE concentration ([1]; mean): 53 nM | 10(11)-EpDPE concentration ([1]; mean): 15 nM | 10,11-DiHDPE concentration ([1]; mean): 2.2^† nM | 10-HDHA concentration ([1]; mean): 2.2 nM | 11(12)-EpETE concentration ([1]; mean): 2.0 nM | 11(12)-EpETrE concentration ([1]; mean): 27 nM | 11,12-DiHETE concentration ([1]; mean): 1.0^* nM | 11,12-DiHETrE concentration ([1]; mean): 5.5^† nM | 11-HDHA concentration ([1]; mean): 2.8 nM | 11-HETE concentration ([1]; mean): 7.0 nM | 12(13)-EpODE concentration ([1]; mean): 3.9 nM | 12(13)-EpOME concentration ([1]; mean): 72 nM | 12,13-DiHODE concentration ([1]; mean): < 2.0 nM | 12,13-DiHOME concentration ([1]; mean): 45^‡ nM | 12-HEPE concentration ([1]; mean): 6.8 nM | 12-HETE concentration ([1]; mean): 32 nM | 13(14)-EpDPE concentration ([1]; mean): 12 nM | 13,14-DiHDPE concentration ([1]; mean): 1.6^‡ nM | 13,14-dihydro-15-keto-PGE1 concentration ([1]; mean): 0.62 nM | 13,14-dihydro-15-keto-PGF2α concentration ([1]; mean): 7.0 nM | 13-HDHA concentration ([1]; mean): 3.8 nM | 13-HODE concentration ([1]; mean): 230 nM | 13-HOTrE concentration ([1]; mean): 8.5 nM | 13-oxo-ODE concentration ([1]; mean): 9.4 nM | 14(15)-EpETE concentration ([1]; mean): 1.8 nM | 14(15)-EpETrE concentration ([1]; mean): 21 nM | 14,15-DiHETE concentration ([1]; mean): 2.1^‡ nM | 14,15-DiHETrE concentration ([1]; mean): 12^‡ nM | 14-HDHA concentration ([1]; mean): 18 nM | 15(16)-EpODE concentration ([1]; mean): 12 nM | 15(S)-HETrE concentration ([1]; mean): 5.2 nM | 15,16-DiHODE concentration ([1]; mean): 17^† nM | 15-HEPE concentration ([1]; mean): 1.7 nM | 15-HETE concentration ([1]; mean): 14 nM | 15-oxo-ETE concentration ([1]; mean): 2.8 nM | 16(17)-EpDPE concentration ([1]; mean): 11 nM | 16,17-DiHDPE concentration ([1]; mean): 3.0^‡ nM | 16-HDHA concentration ([1]; mean): 2.4 nM | 17(18)-EpETE concentration ([1]; mean): 3.2 nM | 17,18-DiHETE concentration ([1]; mean): 5.6^‡ nM | 17-HDHA concentration ([1]; mean): 9.0 nM | 18-HEPE concentration ([1]; mean): 1.6 nM | 19(20)-EpDPE concentration ([1]; mean): 17 nM | 19,20-DiHDPE concentration ([1]; mean): 17^‡ nM | 20-HDHA concentration ([1]; mean): 9.1^* nM | 20-HEPE concentration ([1]; mean): 4.1^‡ nM | 20-HETE concentration ([1]; mean): < 2.6 nM | EKODE concentration ([1]; mean): 34 nM | PGD1 concentration ([1]; mean): 0.91 nM | PGD2 concentration ([1]; mean): 13 nM | PGE1 concentration ([1]; mean): 0.88 nM | PGE2 concentration ([1]; mean): 4.2 nM | PGF1α concentration ([1]; mean): 2.5 nM | TXB2 concentration ([1]; mean): 8.4 nM | TxB3 concentration ([1]; mean): < 0.05 nM | dihomo-PGF2α concentration ([1]; mean): 1.0 nM | PGF2α concentration ([1]; mean (first listing, r6)): 12 nM | PGF2α concentration ([1]; mean (second listing, r9)): 12 nM | 1a,1b-dihomo-PGF2α [2, 3]: 3.2^† nM | 4,5-DiHDPE [2, 3]: 26^‡ nM | 4-HDHA [2, 3]: 22 nM | 5(6)-EpETrE [2, 3]: 70 nM | 5,6-DiHETrE [2, 3]: 2.2^‡ nM | 5-HEPE [2, 3]: 1.1 nM | 5-HETE [2, 3]: 13 nM | 5-oxo-ETE [2, 3]: 24 nM | 6-keto-PGF1α [2, 3]: 108^‡ nM | 7,8-DiHDPE [2, 3]: 1.9 nM | 7-HDHA [2, 3]: 2.7 nM | 8(9)-EpETrE [2, 3]: 15 nM | 8,9-DiHETrE [2, 3]: 2.2^* nM | 8-HDHA [2, 3]: 18^* nM | 8-HETE [2, 3]: 4.4 nM | 8-iPF2a [2, 3]: 2.7^† nM | 9(10)-EpODE [2, 3]: 9.9 nM | 9(10)-EpOME [2, 3]: 110 nM | 9(10)-Epoxystearic acid [2, 3]: 64 nM | 9,10,13-TriHOME [2, 3]: 10 nM | 9,10-DiHODE [2, 3]: 2.0 nM | 9,10-DiHOME [2, 3]: 27 nM | 9,10-Dihydroxystearic acid [2, 3]: 87 nM | 9,12,13-TriHOME [2, 3]: 69^‡ nM | 9-HETE [2, 3]: 3.6 nM | 9-HODE [2, 3]: 380^† nM | 9-HOTrE [2, 3]: 5.8 nM | 9-oxo-ODE [2, 3]: 73 nM | 10(11)-EpDPE [2, 3]: 27 nM | 10,11-DiHDPE [2, 3]: 2.3 nM | 10-HDHA [2, 3]: 3.6 nM | 11(12)-EpETE [2, 3]: 1.4 nM | 11(12)-EpETrE [2, 3]: 35 nM | 11,12-DiHETrE [2, 3]: 1.8^‡ nM | 11-HDHA [2, 3]: 5.4 nM | 11-HETE [2, 3]: 22^† nM | 12(13)-EpODE [2, 3]: 4.3 nM | 12(13)-EpOME [2, 3]: 80 nM | 12,13-DiHOME [2, 3]: 32^† nM | 12-HEPE [2, 3]: 5.0 nM | 12-HETE [2, 3]: 47 nM | 13(14)-EpDPE [2, 3]: 22 nM | 13,14-DiHDPE [2, 3]: 1.4 nM | 13,14-dihydro-15-keto-PGF2α [2, 3]: 4.6^‡ nM | 13-HDHA [2, 3]: 7.7 nM | 13-HODE [2, 3]: 310^† nM | 13-HOTrE [2, 3]: 6.0 nM | 13-oxo-ODE [2, 3]: 8.3 nM | 14(15)-EpETE [2, 3]: 1.7 nM | 14(15)-EpETrE [2, 3]: 29 nM | 14,15-DiHETE [2, 3]: 0.38^‡ nM | 14,15-DiHETrE [2, 3]: 3.4^‡ nM | 14-HDHA [2, 3]: 20 nM | 15(16)-EpODE [2, 3]: 22 nM | 15(S)-HETrE [2, 3]: 8.0^‡ nM | 15,16-DiHODE [2, 3]: 22 nM | 15-HETE [2, 3]: 30^* nM | 15-oxo-ETE [2, 3]: 9.3 nM | 16(17)-EpDPE [2, 3]: 21 nM | 16,17-DiHDPE [2, 3]: 2.7^‡ nM | 16-HDHA [2, 3]: 4.9^* nM | 17(18)-EpETE [2, 3]: 2.4 nM | 17,18-DiHETE [2, 3]: 1.8^‡ nM | 17-HDHA [2, 3]: 15 nM | 18-HEPE [2, 3]: 1.5 nM | 19(20)-EpDPE [2, 3]: 36 nM | 19,20-DiHDPE [2, 3]: 31^‡ nM | 20-HDHA [2, 3]: 17 nM | 20-HEPE [2, 3]: 11 nM | EKODE [2, 3]: 92^‡ nM | PGD2 [2, 3]: 19^† nM | PGE1 [2, 3]: 8.3 nM | PGE2 [2, 3]: 110 nM | PGF1α [2, 3]: 7.7^‡ nM | PGF2α [2, 3]: 63^‡ nM | TXB2 [2, 3]: 4.9^‡ nM | 5,6-DiHETE [2, 4]: < 0.25 nM | 5-iPF2α [2, 4]: 1.5^‡ nM | 8(9)-EpETE [2, 4]: 1.2 nM | 12,13-DiHODE [2, 4]: < 2.0 nM | 13,14-dihydro-15-keto-PGE1 [2, 4]: 0.49 nM | 20-HETE [2, 4]: 3.6^* nM | PGD1 [2, 4]: 0.84^† nM | PGF2α ([2]; kidney tissue 24 h after LPS treatment, LPS +, mean, second listing of PGF2α (r9)): 63 nM | kidney 6-keto-PGF1α level [2, 5]: elevated | kidney 8-iPGF2α level [2, 5]: elevated | kidney 13,14-dihydro-15-keto-PGE1 level [2, 5]: elevated
